For one data set, the system named is S. aureus ATCC29213. The experiment in a line: microbe, parasite or virus in culture. Conditions: ATCC29213, 18 h. In short, it runs like this: (§1)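 Peptide growth inhibition measured by twofold dilution against mid-log bacteria (2×10^4 cells/100 μl), 37° C, 18 hours; endpoint was absence of cell division. Meropenem, ceftazidime, ceftriaxone and vancomycin were run in parallel.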

In another data set the test system is S. aureus USA300. Description: microbe, parasite or virus in culture. Conditions: S. aureus USA300, antibiotics-tolerant; 37° C., 18 hours. In a few lines: as §1
The next data set deals with S. aureus MW2. Description: microbe, parasite or virus in culture. Conditions: S. aureus MW2, antibiotics-tolerant; 37° C., 18 hours. In short, it runs like this: as §1
For a further data set, the system named is S. aureus ATCC25923. The experiment in a line: microbe, parasite or virus in culture. Conditions: ATCC25923, 18 h. In a few lines: as §1
For the next data set, the system named is P. aeruginosa ATCC27853. The experiment in a line: microbe, parasite or virus in culture. Conditions: ATCC27853, 18 h. In short, it runs like this:
as §1

Data set [1] concerns 11 types of strains (Staphylococcus aureus, Pseudomonas erujinosa). The experiment in a line: MIC, summary over the strains of Table 7. Type of data set: cell-based. The procedure:
In order to compare the antimicrobial activity of PEP27-2, which is the peptide having the most excellent antimicrobial activity among the peptides prepared by the method of above 1, with existing antibiotics, MIC concentrations of specific antibiotics were investigated with regard to the same gram-positive bacteria (Staphylococcus aureus) and the same gram-negative bacteria (Pseudomonas erujinosa) stains. Specifically, subject strains were prepared by the method of above 2, and were treated with the antibiotics, that is, meropenem, ceftazidime, ceftriaxone or vancomycin, respectively, followed by determining MICs of the antibiotics.

Data set [2] has as its system E. coli ATCC 25922. The experiment in a line: Time-kill kinetics. Type of data set: cell-based, Escherichia coli. Conditions: at MIC, after 20 min of treatment. The protocol: (§2) Time-killing kinetics were analyzed for E. coli ATCC 25922 and S. aureus ATCC 25923 in the presence of PEP27-2 at their respective MICs. The bacterial cells were cultured overnight until they reached the exponential growth phase; they were then incubated at 37° C. for an additional 10 min from 0 min to 1 h. The total bacterial population was then stained with QUANTOM total cell staining dye, after which the stained cells were mixed with QUANTOM cell loading buffer and loaded into QUANTOM M50 Slides. The slides were centrifuged using the QUANTOM centrifuge to evenly distribute them throughout the counting chamber and ensure accurate cell counts. Intracellular fluorescence was detected using the QUANTOM Tx microbial cell counter, which captures and counts cells automatically (Logos Biosystems, Gyeonggi-do, South Korea).

The test system of another data set is S. aureus ATCC 25923. Description: Time-kill kinetics. In kind it is cell-based, Staphylococcus aureus. Conditions: at MIC, after 20 min of treatment. The procedure: as §2
A further data set relates to E. coli ATCC25922. In kind it is cell-based, Escherichia coli. Conditions: ATCC25922, 18 h. The procedure: (§3) In order to evaluate the antimicrobial activity of the peptides prepared by the method of above 1, a minimal inhibitory concentration (MIC) value as the minimum concentration of a peptide, in which cells are not divided, was measured.
(§4) Specifically, the strains shown in Table 3 below were purchased, cultured in a medium having a constitutional composition suitable for each strain to a mid-log phase, and then diluted to a concentration of 2×10^4 cells/100 μl to prepare the product on a micro-titration plate (Nunc, USA). Then, PEP27, PEP27-1, PEP27-2 or PEP27-5 peptide synthesized in the above 1 was added to each well by serial dilution ½ times, followed by incubation at 37° C. for 18 hours.

Another data set has as its system E. coli CCARM1229. In kind it is cell-based, Escherichia coli. Conditions: E. coli CCARM1229, antibiotics-tolerant; 37° C., 18 hours. The protocol: as §3, §4
For data set [3], the system named is E. coli ATCC 25922. Description: Cytoplasmic membrane depolarization (DiSC3-5). Type of data set: cell-based, Escherichia coli. Conditions: 4×MIC. The procedure: We also used E. coli cells and the membrane potential-sensitive cyanine dye 3,3′-dipropylthiadicarbocyanine iodide (DiSC3-5) to test the ability of PEP27 and PEP27-2 to depolarize Gram-negative bacterial membranes (FIG. 15B to FIG. 15E).
Depolarization of the cytoplasmic membrane by the peptides was measured using the membrane potential-sensitive dye DiSC3-5 (Merck KGaA, n=4 per condition) with intact E. coli cells as previously described. 66 Mid-log-phase E. coli ATCC 25922 cells were washed with 5 mM HEPES buffer containing 20 mM glucose and resuspended to an OD600 of 0.05 in 5 mM HEPES buffer containing 20 mM glucose and 0.1 M KCl. The cell suspension was incubated with 1 μM DiSC3-5 for 1 h. […] Fluorescence was measured at excitation and emission wavelengths of 622 and 670 nm, respectively.
When the bacterial cytoplasmic membrane is disrupted, the membrane potential dissipates E. coli, and DiSC3-5 is released into the culture medium, resulting in a fluorescence increase. After stabilization for 10 min by treatment with DiSC3-5, AMPs were added, and the plasma membrane potential of E. coli was confirmed by monitoring the change in fluorescence intensity for another 30 min.

The next data set concerns plasmid DNA (pRSETB). Description: Peptide-DNA binding by agarose gel electrophoresis. Conditions: peptide/DNA ratios 0.25:1 to 4:1, 300 ng plasmid DNA. The protocol: Specifically, 300 ng of plasmid DNA (pRSETB) was reacted with the peptide by a relative ratio (reactions were performed at peptide/DNA ratios of DNA alone, 0.25:1, 0.5:1, 1:1, 1.5:1, 2:1, 3:1, 4:1, respectively) at 37° C. for 10 minutes, followed by conducting electrophoresis on a 1% agarose gel, staining the same with ethidium bromide (EtBr) and monitoring through UV.

A short description of data set [4]: Calcein release from LUVs. Conditions: P/L ratio of 0.05. The procedure:
To examine the mechanism of action of PEP27 and PEP27-2, we evaluated the changes in bacterial cell membrane permeability by monitoring the release of calcein, a fluorescent marker, from calcein entrapped LUVs with different lipid bilayer compositions.
Peptide-induced membrane permeabilization was quantified by monitoring calcein release from LUVs (n=3 per condition). Different calcein-entrapped LUVs [PE/PG (7/3) or PC/CH/SM (1/1/1)] were prepared as described above, except that the dry lipid films were resuspended in 1 mL of PBS (pH 7.2) containing 70 mM calcein. Gel filtration chromatography on a Sephadex G-50 column was performed to separate free calcein from that entrapped in LUVs. Thereafter, the LUVs with entrapped calcein were mixed with peptides at various ratios, and the fluorescence of the released calcein was measured with a SpectraMax M3 Multi-Mode Microplate Reader (Molecular Devices, Sunnyvale, CA, USA) at excitation and emission wavelengths of 480 and 520 nm, respectively.

The text below walks through data of US12180252B2, “Peptide derived from PEP27 peptide and uses thereof” (priority 2021, dated 2024).

Structures are written as SMILES. ≈ marks a conversion by molar mass, not a printed value. Where “and” joins values, the source holds several entries; their conditions need not be identical. Identical values can stand only once. Where a SMILES comes first, the peptide text is derived from it.

For the compound `CSCC[C@H](N)C(=O)N[C@@H](Cc1c[nH]c2ccccc12)C(=O)N[C@@H](CCCCN)C(=O)N[C@@H](Cc1c[nH]c2ccccc12)C(=O)N[C@@H](Cc1ccccc1)C(=O)N[C@@H](Cc1c[nH]cn1)C(=O)N[C@@H](CC(N)=O)C(=O)N[C@H](C(=O)N[C@@H](CC(C)C)C(=O)N[C@@H](CO)C(=O)N[C@@H](Cc1c[nH]c2ccccc12)C(=O)NCC(=O)N[C@@H](Cc1c[nH]c2ccccc12)C(=O)N[C@@H](CC(C)C)C(=O)N[C@@H](CC(C)C)C(=O)N[C@@H](C)C(=O)N[C@@H](CC(=O)O)C(=O)N[C@@H](CCCCN)C(=O)N[C@@H](CCCNC(=N)N)C(=O)N1CCC[C@H]1C(=O)N[C@@H](C)C(=O)N[C@@H](CCCNC(=N)N)C(=O)N[C@@H](CC(=O)O)C(=O)N[C@@H](Cc1ccc(O)cc1)C(=O)N[C@@H](CC(N)=O)C(=O)N[C@@H](CCCNC(=N)N)C(=O)N[C@@H](CCCCN)C(N)=O)C(C)C` [PEP27-2] (H-MWKWFHNVLSWGWLLADKRPARDYNRK-NH2), the Minimal inhibitory concentration is 2 µM (≈ 6.95 µg/mL) with S. aureus ATCC29213; 2 µM (≈ 6.95 µg/mL) in the data set with S. aureus USA300; 3 µM and 4 µM in the data set on S. aureus MW2; 2 µM (≈ 6.95 µg/mL) in the data set on S. aureus ATCC25923; 4 µM (≈ 13.9 µg/mL) with P. aeruginosa ATCC27853; 4 µM (≈ 13.9 µg/mL) in the data set with E. coli ATCC25922. Besides, the Minimal inhibitory concentration in the data set on E. coli CCARM1229 was found to be 4 µM (≈ 13.9 µg/mL). In addition, the “MIC range over the strains of Table 7” value in data set [1] was in the range of 2 to 4 µM. In the data set on E. coli ATCC 25922 [2], the “decrease in E. coli cell viability” value is given as 98.63%. In the data set with S. aureus ATCC 25923, the “decrease in S. aureus cell viability” value turned out to be 97.48%.

As to `CC[C@H](C)[C@H](NC(=O)CN)C(=O)NCC(=O)N[C@@H](C)C(=O)N[C@H](C(=O)N[C@@H](CC(C)C)C(=O)N[C@@H](CCCCN)C(=O)N[C@H](C(=O)N[C@@H](CC(C)C)C(=O)N[C@H](C(=O)N[C@H](C(=O)NCC(=O)N[C@@H](CC(C)C)C(=O)N1CCC[C@H]1C(=O)N[C@@H](C)C(=O)N[C@@H](CC(C)C)C(=O)N[C@H](C(=O)N[C@@H](CO)C(=O)N[C@@H](Cc1c[nH]c2ccccc12)C(=O)N[C@H](C(=O)N[C@@H](CCCCN)C(=O)N[C@@H](CCCNC(=N)N)C(=O)N[C@@H](CCCCN)C(=O)N[C@@H](CCCNC(=N)N)C(=O)N[C@@H](CCC(N)=O)C(=O)N[C@@H](CCC(N)=O)C(N)=O)[C@@H](C)CC)[C@@H](C)CC)[C@@H](C)O)[C@@H](C)O)C(C)C)C(C)C` [Melittin, reference compound], the “DiSC3-5 fluorescence intensity (membrane depolarization)” value in the data set on E. coli ATCC 25922 [3] is approximately 140. Besides, the “binding to DNA (gel electrophoresis)” value in the data set with plasmid DNA (pRSETB) is listed as “not bound to any DNA”. The maximum calcein leakage in data set [4] is on record as 100%.
